US10377902B2, “Crystallized red pigment, method of producing a recrystallized red pigment and a method for improving the appearance of or preventing wrinkles” (priority 2013, dated 2019)
pIC50: −log10 of the molar value. Values after ≈ are worked out from the molar mass of the structure shown. “Also recorded” adds a separate entry of the source. Marks after values point to notes of the source that are not given here.

Columns and labels:
[1] = system: HUVEC (human umbilical vein endothelial cells); assay: Cell proliferation, VEGF-Induced (307900), antagonist mode; format: cell-based; conditions: concurrent batch 305353, antagonist, read-out: Concurrent IC50/EC50
Procedure: Measurement of proliferation inhibition activity of VEGF-Induced cell of vascular endothelial cells by purified red pigment from Saw palmetto.
The final concentration in the test was given as 100 μg/mL and 10 μg/mL.
HUVEC cells were incubated in air atmosphere of 5% CO2 at 37° C. The culture medium used was Endothelial Cell Growth Medium with 10% fetal bovine serum (FBS). The medium for assay was
M199 medium supplemented with 10% FBS and 10 μg/mL of Heparin.
Aliquots of HUVEC (1.1×10^5 cells/ well) were pre-seeded in the 96-well TC plate in an incubator at 5% CO2, 37° C. Test compound solution or vehicle (DMSO) was then added per well and incubated at 5% CO2, 37° C. for 20 minutes. Thereafter, VEGF165 (0.2 nM) was added and incubated for 48 hours. 48 hours later, the cells were washed with HBSS once. Then 5 μg/mL of the fluorescence reagent, CalceinAM dye (BD Biosciences, USA) was added and incubated for another 50 minutes. After incubation, fluorescence intensity was detected by Micro plate reader. More than 50% of suppression for VEGF165 induced proliferation was indicated for the significant antagonistic activity of the test reagent.

HuVECs = assay: Tube formation of HuVECs in the presence of VEGF; format: cell-based, human; conditions: 30 μM, not showing cytotoxicity
Procedure: In turn, whether NYG-1 can suppress angiogenesis ability of HuVECs was tested.

[2] = system: Human umbilical vein endothelial cells (HUVEC); assay: Angiogenesis, Tube Formation (Assay#368000): HUVEC tube network on Matrigel; format: cell-based
Procedure: Following biological test results were conducted by Ricerca Bioscience, LLC (http://www.Ricerca.com.) under a contract (Assay#368000, Tumor, Angiogenesis, Tube Formation) with the crystalized red pigment prepared in Example 1.
Human umbilical vein endothelial cells (HUVEC) differentiate to capillary-like structures and form vessel network on Matrigel in the presence of endothelial cell growth supplements. The anti-angiogenic activity of a test compound can be assessed by observing continuity of vessel network compared with untreated control. Test compound (crystallized red pigment prepared in […]) was tested for an effect on anti-angiogenesis at five final concentrations of 100, 10, 1, 0.1 and 0.01 μg/mL.
The crystalized red pigment prepared in Example 1 was dissolved in 100% dimethyl sulfoxide (DMSO) and then diluted with sterile distilled water to obtain solutions of […] in 40% DMSO. The solutions were diluted 100-fold with culture medium to generate final concentrations of 0.01, 0.1, 1, 10 and 100 μg/mL.
HUVEC was purchased from American Type Culture Collection (ATCC CRL-1730). HUVEC cells were incubated in 5% CO2 atmosphere of at 37° C. The culture medium used was Endothelial Cell Growth Medium supplemented with 10v/v % fetal bovine serum and 1% antifungal antibiotic.
Matrigel matrix was thawed, kept on ice at 4° C. and 50μL of the matrix was transferred to each well of a 96-microwell culture plate. The plate was incubated at 37° C. for at least one hour to allow the matrix solution to solidify before treatment.
Aliquots of […] of HUVEC suspension (about 1.5×10^4 cells/well) were placed in the 96-well matrigel plate. Two microliters per well of test compound solution or vehicle (40% DMSO) was then added and incubated at 5% CO2, 37° C. for 18 hours (in duplicate). The final concentration of DMSO was 0.4%. The test compound was evaluated at concentrations of 100, 10, 1, 0.1 and 0.01 μg/mL. At the end of incubation, a tube network formed by endothelial cell in each wells was evaluated by photomicroscopy (magnification of 40×) and photographed. The total length of tube network was measured from each photograph (FIG. 1).
The reduction of the total length of tube network in test compound treatment to the total length of tube network in vehicle treatment control indicates anti-angiogenic activity. The minimum inhibitory concentration (MIC) and 50% inhibition concentration (IC50) were determined to assess effect of the test substance on anti-angiogenesis.

HuVEC cells = assay: Cytotoxicity / growth of vascular endothelial cells; format: cell-based, human; conditions: a few hundred micro mole level
Description: The growth activity of cells under exposure to NYG-1 was detected by using HuVEC cells which is an in vitro cell model. […] Further, suramin was used as a positive control.

SMILES	pIC50 [1]	blood vessel formation (in words) (HuVECs)	effect on tube formation (in words) ([2]; 30 μM)	effect on tube formation (in words) ([2]; 30 and 15 μM)	pIC50 ([2]; Homo sapiens, HUVEC)	% Inhibition of total tube length (mean ± SEM) ([2]; suramin concentration 1 (head prints μg/mL)) [%]	% Inhibition of total tube length (mean ± SEM) ([2]; suramin concentration 3 (head prints μg/mL)) [%]	% Inhibition of total tube length (mean ± SEM) ([2]; suramin concentration 10 (head prints μg/mL)) [%]	% Inhibition of total tube length (mean ± SEM) ([2]; suramin concentration 15 (head prints μg/mL))	% Inhibition of total tube length (mean ± SEM) ([2]; suramin concentration 30 (head prints μg/mL))	MIC (minimum inhibitory concentration) ([2]; tube formation) [µM]	cytotoxicity on HuVEC cells (HuVEC cells)
Cc1cc(C)c(/C=C2\C(=O)Nc3ccccc32)[nH]1 [SU5416]	6.92											
Cc1ccc(C(=O)Nc2ccc(S(=O)(=O)O)c3cc(S(=O)(=O)O)cc(S(=O)(=O)O)c23)cc1NC(=O)c1cccc(NC(=O)Nc2cccc(C(=O)Nc3cc(C(=O)Nc4ccc(S(=O)(=O)O)c5cc(S(=O)(=O)O)cc(S(=O)(=O)O)c45)ccc3C)c2)c1 [Suramin]		can suppress blood vessel formation	almost no tube formation; also recorded: completely inhibited	significant inhibition	4.80	3 ± 4	4 ± 5	8 ± 1	42 ± 9^ab %	100 ± 0^a %	15 (≈ 19.5 µg/mL)	strong cytotoxicity
